# Key:
# [1] = system: HCT116 colon cancer cells; details: another study (ref. 27); cited from earlier work
# FoxM1 [2] = assay: FoxM1-responsive firefly luciferase reporter assay in C3-Luc cells; assay type: cell-based, human; details: C3-Luc cells without doxycycline induction, increasing concentration
# Procedure: (§1) FIG. 6. Thiostrepton and Siomycin A both inhibit FoxM1 transcriptional activity. […] The next day, the luciferase activity was measured with the Dual-Luciferase reporter assay system (E1910; Promega) according to the manufacturer's instructions.
# (§2) The development of U2OS clone C3 cell line with doxycyclin inducible FoxM1-GFP fusion protein has been described before (17). This cell line was transfected with a plasmid expressing firefly luciferase under the control of 6× FoxM1 responsive (FoxRE) promoter (17), along with pcDNA3.1 (Invitrogen, Carlsbad, Calif.) plasmid that expresses neomycin phospho-transferase. […] This clone was further transfected with pRL-CMV (Promega) that expresses renilla luciferase along with pLPCX-puro (Clontech), and the cells were selected in 2 μg/ml puromycin. This cell line which expresses FoxM1-dependent firefly luciferase and constitutive renilla luciferase was named as C3-Luc and used for the screening of compound libraries (Challenge set and Diversity set) from the National Cancer Institute.
# (§3) For high-throughput screening, the C3-Luc cells were grown in 96-well plates and treated overnight with a combination of 1 μg/ml doxycycline and 10 μM of compounds from the library. Next day, the firefly and renilla luciferase activities were measured with the Dual Glo system (E2940; Promega).
# (§4) For the other luciferase assay experiments, the cells were treated as indicated in the FIG. 1 legend and the luciferase activity was measured using the Dual Luciferase reporter assay system (E1910; Promega) according to the manufacturer's instructions.
# FoxM1 [3] = target: T1, FoxM1 (Homo sapiens, UniProt Q08050); assay: as above; assay type: cell-based; details: C3-Luc cells
# T1 construct: expressed in transfected cells; host or cells: U2OS clone C3 / C3-Luc
# T1 sequence (Q08050 1-748 isoform Q08050-2): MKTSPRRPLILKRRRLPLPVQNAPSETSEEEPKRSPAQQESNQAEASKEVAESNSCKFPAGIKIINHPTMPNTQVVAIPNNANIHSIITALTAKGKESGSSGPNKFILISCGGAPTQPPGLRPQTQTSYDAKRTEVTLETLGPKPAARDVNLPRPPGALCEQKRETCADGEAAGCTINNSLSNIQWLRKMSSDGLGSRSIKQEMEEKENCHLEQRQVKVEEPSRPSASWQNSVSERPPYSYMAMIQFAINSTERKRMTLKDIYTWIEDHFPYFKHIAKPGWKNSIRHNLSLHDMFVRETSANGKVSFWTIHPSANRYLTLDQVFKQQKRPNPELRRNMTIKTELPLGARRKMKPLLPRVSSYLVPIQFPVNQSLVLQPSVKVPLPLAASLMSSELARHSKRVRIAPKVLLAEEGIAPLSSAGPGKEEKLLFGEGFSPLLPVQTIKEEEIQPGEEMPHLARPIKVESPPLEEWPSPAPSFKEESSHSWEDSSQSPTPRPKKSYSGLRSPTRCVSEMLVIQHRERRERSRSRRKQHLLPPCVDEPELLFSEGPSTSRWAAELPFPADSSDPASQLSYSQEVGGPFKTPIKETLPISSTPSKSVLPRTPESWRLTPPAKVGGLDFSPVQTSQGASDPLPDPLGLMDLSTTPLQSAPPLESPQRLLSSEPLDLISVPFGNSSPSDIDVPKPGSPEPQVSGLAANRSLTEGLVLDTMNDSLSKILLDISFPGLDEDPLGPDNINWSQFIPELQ
# Procedure: as §1, §2, §3, §4
# [4] = system: FoxM1 target genes Cdc25B, Survivin, and CENPB; assay: Real-time quantitative RT-PCR of FoxM1 target gene mRNA in C3-Luc cells; assay type: cell-based, human; details: 24 hrs, vs DMSO
# Procedure: (§5) FIG. 2. Siomycin A inhibits endogenous FoxM1 transcriptional activity. (A) C3-Luc cells without doxycycline induction, were treated with increasing dose of Siomycin A and luciferase activity was determined as described in Example 1. (B) C3-Luc cells treated either with DMSO (control) or Siomycin A were harvested 24 hrs later and the RNA was subjected to real-time RT-PCR for quantitation of mRNA levels of FoxM1 target genes Cdc25B, Survivin, and CENPB. (C) C3-Luc cells treated as indicated were harvested 24 hrs later and used for immunoblot analysis to determine the levels of survivin, and p21^WAF1. β-actin protein levels were used as loading control.
# Cells treated with Siomycin A or DMSO (control) were harvested 24 hrs later and RNA was extracted using the TRIzol reagent (15596-026; Invitrogen). cDNA was prepared from this RNA using the Bio-Rad cDNA synthesis kit. The following sense (S) and antisense (AS) primer sequences and annealing temperatures (Ta) were used to amplify and measure the amount of human mRNA by real-time RT-PCR: FoxM1-S, 5′-GGAGGAAATGCCACACTTAGCG-3′ (SEQ ID NO: 1), and FoxM1-AS, 5′-TAGGACTTCTTGGGTCTTGGGGTG-3′ (SEQ ID NO: 2) (Ta, 55.7° C.); survivin-S, 5′-TCAAGGACCACCGCATCTCTA-3′ (SEQ ID NO: 3), and survivin-AS, 5′-TGAAGCAGAAGAAACACTGGGC-3′ (SEQ ID NO: 4) (Ta, 61° C.); CENPB-S, 5′-ATTCAGACAGTGAGGAAGAGGACG-3′ (SEQ ID NO: 5), and CENPB-AS, 5′-CATCAATGGGGAAGGAGGTCAG-3′ (SEQ ID NO: 6) (Ta, 58° C.); Cdc25B-S, 5′-CCCTTCCCTGTTTTCCTTTC-3′ (SEQ ID NO: 7), and Cdc25B-AS, 5′-ACACACACTCCTGCCATAGG-3′ (SEQ ID NO: 8) (Ta, 61.7° C.). These real-time RT-PCR RNA levels were normalized to human cyclophilin mRNA levels, and these primers are as follows: cyclophilin-S, 5′-GCAGACAAGGTCCCAAAGACAG-3′ (SEQ ID NO: 9), and cyclophilin-AS, 5′-CACCCTGACACATAAACCCTGG-3′ (SEQ ID NO: 10) (Ta, 55.7° C.).
# survivin, and p21^WAF1 = assay: Immunoblot of survivin and p21WAF1 in C3-Luc cells; assay type: cell-based, human; details: 24 hrs
# Procedure: as §5
# Immunoblotting was performed as described (18-20) with antibodies specific for p21 (556431; BD Pharmingen), survivin (sc-10811; Santa Cruz), cleaved caspase-3 (9664; Cell Signaling), and β-actin (A5441; Sigma) antibodies. Immunoblot for FoxM1 was done using the previously generated rabbit antisera (2), and phospho-FoxM1 was detected using the MPM2 monoclonal antibody (Upstate Biotechnology) which recognizes the phosphorylated protein sequence phosphoserine/phosphothreonine-proline.
compound,measurement,setting,value
C=C(NC(=O)C(=C)NC(=O)c1csc(C2=N[C@@H]3c4csc(n4)[C@H]4NC(=O)c5csc(n5)[C@H]([C@](C)(O)[C@@H](C)O)NC(=O)[C@H]5CSC(=N5)/C(=C/C)NC(=O)[C@H]([C@@H](C)O)NC(=O)c5csc(n5)[C@]3(CC2)NC(=O)[C@H](C)NC(=O)C(=C)NC(=O)C(=C)NC(=O)[C@H](C(C)C)N[C@@H]2C=Cc3c([C@H](C)O)cc(nc3[C@H]2O)C(=O)O[C@@H]4C)n1)C(N)=O [Siomycin A],cell death mechanism in HCT116 cells,[1],"induced Endoplasmic reticulum stress, and lysosomal membrane permeabilization followed by cell death"
same,firefly luciferase activity conferred by the FoxM1-responsive promoter (endogenous FoxM1),FoxM1 [2],dose-dependent decrease
same,relative firefly luciferase activity (FoxM1 transcriptional activity),"FoxM1 [3]; 1 μg/mL doxycycline (60-fold induction), 5 μM compound, 24 hrs",efficiently reduced the value to basal levels
same,relative firefly luciferase activity (exogenous FoxM1 transcriptional activity),"FoxM1 [3]; 1 μg/ml doxycycline induction (~16-fold), 10 μM compound, overnight",efficiently reduced the value to basal levels
same,CENPB mRNA level compared to initial level,[4],15%
same,Cdc25B mRNA level relative to basal value,[4],32%
same,Survivin mRNA level compared to initial level,[4],48%
same,p21^WAF1 protein levels,"survivin, and p21^WAF1",increase in its protein levels
same,protein levels of survivin,"survivin, and p21^WAF1",dramatically reduced
